Laboratory results: patent US11905281B2 (Amgen Inc., priority 2017, dated 2024)
One block for each compound: values may come before it.

Experiments:
[1] = system: Phosphorylation of ERK1/2 in A549 cells; test: Phospho-ERK1/2 MSD Assay, A549 (Table 15 conditions: 4 hours compound treatment); format: cell-based; conditions: Homo sapiens, A549, 4 h, EGF stimulation, read-out: p-ERK IC50 (A549)
Procedure: (§1) For compounds in Table 15, the following assay conditions were employed:
(§2) Phospho-ERK1/2 MSD Assay: MIA PaCa-2 (ATCC® CRL-1420™) and A549 (ATCC® CCL-185™) cells were cultured in RPMI 1640 Medium (ThermoFisher Scientific 11875093) containing 10% fetal bovine serum (ThermoFisher Scientific 16000044) and 1× penicillin-streptomycin-glutamine (ThermoFisher Scientific 10378016). Sixteen hours prior to compound treatment, MIA PaCa-2 or A549 cells were seeded in 96-well cell culture plates at a density of 25,000 cells/well and incubated at 37° C., 5% CO2. A compound dose-response titration was diluted in growth media, added to appropriate wells of a cell culture plate, and then incubated at 37° C., 5% CO2 for 4 hours. Following compound treatment, cells were stimulated with 10 ng/mL EGF (Roche 11376454001) for 10 min, washed with ice-cold Dulbecco's phosphate-buffered saline, no Ca^2+ or Mg^2+ (ThermoFisher Scientific 14190144), and then lysed in RIP A buffer (50 mM Tris-HCl pH 7.5, 1% Igepal, 0.5% sodium deoxycholate, 150 mM NaCl, and 0.5% sodium dodecyl sulfate) containing protease inhibitors (Roche 4693132001) and phosphatase inhibitors (Roche 4906837001). Cell lysates were stored frozen at −80° C. overnight. Phosphorylation of ERK1/2 in compound-treated lysates was assayed using Phospho-ERK1/2 Whole Cell Lysate kits (Meso Scale Discovery K151DWD) according to the manufacturer's protocol. Assay plates were read on a Meso Scale Discovery Sector Imager 6000, and data were analyzed using a 4-parameter logistic model to calculate IC50 values.

[2] = biological target: T1, GDP-bound KRAS protein (aa 1-169), containing both G12C and C118A amino acid substitutions (Homo sapiens, UniProt P01116, C118A/G12C); test: Coupled Nucleotide Exchange Assay (Table 15 conditions: 2 hours pre-incubation); format: biochemical; conditions: 2 hours compound pre-incubation (Table 15 conditions)
Procedure: as §1
Following compound pre-incubation, purified SOS protein (aa 564-1049) and GTP (Roche 10106399001) were added to the assay wells and incubated for an additional hour. […] The assay plates were then read on a PerkinElmer EnVision Multilabel Reader, using AlphaScreen® technology, and data were analyzed using a 4-parameter logistic model to calculate IC50 values.

[3] = system: Phosphorylation of ERK1/2 in MIA PaCa-2 cells; test: Phospho-ERK1/2 MSD Assay, MIA PaCa-2 (Table 15 conditions: 4 hours compound treatment); format: cell-based; conditions: EGF stimulation, read-out: p-ERK IC50 (MIA PaCa-2)
Procedure: as §1, §2

[4] = system: Phosphorylation of ERK1/2 in MIA PaCa-2 cells; test: Phospho-ERK1/2 MSD Assay, MIA PaCa-2 (Table 16 conditions: 2 hours compound treatment); format: cell-based; conditions: 10 ng/mL EGF for 10 min, read-out: p-ERK IC50 (MIA PaCa-2)
[5] = system: Phosphorylation of ERK1/2 in A549 cells; test: Phospho-ERK1/2 MSD Assay, A549 (Table 16 conditions: 2 hours compound treatment); format: cell-based; conditions: Homo sapiens, 10 ng/mL EGF for 10 min, read-out: p-ERK IC50 (A549)
Procedure: (§3) For compounds in Table 16, the following assay conditions were employed:
as §2, with “for 2” for “for 4”, “4906837001). […]” for “4906837001). Cell lysates were stored frozen at −80° C. overnight. Phosphorylation of ERK1/2 in compound-treated lysates was assayed using Phospho-ERK1/2 Whole Cell Lysate kits (Meso Scale Discovery K151DWD) according to the manufacturer's protocol.”

[6] = biological target: T1, GDP-bound KRAS protein (aa 1-169), containing both G12C and C118A amino acid substitutions; test: Coupled Nucleotide Exchange Assay (Table 16 conditions: 5 min pre-incubation); format: biochemical; conditions: 5 min compound pre-incubation; SOS-mediated nucleotide exchange, AlphaScreen
Procedure: as §3
The assay plates were then read on a PerkinElmer EnVision Multilabel Reader, using AlphaScreen® technology, and data were analyzed using a 4-parameter logistic model to calculate IC50 values.

T1 sequence (P01116 1-169 isoform P01116-2 G12C/C118A): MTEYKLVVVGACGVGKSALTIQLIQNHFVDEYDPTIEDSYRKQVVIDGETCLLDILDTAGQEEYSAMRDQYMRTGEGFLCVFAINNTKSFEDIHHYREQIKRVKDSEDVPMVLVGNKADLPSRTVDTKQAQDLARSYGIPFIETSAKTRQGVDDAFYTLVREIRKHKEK

Structure (SMILES): C=CC(=O)N1CCN(c2nc(=O)n(-c3ccncc3C3CC3)c3cc(-c4c(O)cccc4F)c(Cl)cc23)[C@@H](C)C1 (single isomer, unassigned) [Example 9-7-2]
- IC50 [3]: 232 nM

Structure (SMILES): C=CC(=O)N1CCN(c2nnc(-c3c(C)ccc4[nH]ncc34)c3cc(-c4c(O)cccc4F)c(Cl)cc23)CC1 [Example 10-12, 1-(4-(7-chloro-6-(2-fluoro-6-hydroxyphenyl)-4-(5-methyl-1H-indazol-4-yl)-1-phthalazinyl)-1-piperazinyl)-2-propen-1-one]
- IC50 ([3]; Homo sapiens, MIA PaCa-2, 4 h): 22600 nM

Structure (SMILES): C=CC(=O)N1CCN(c2nc(=O)n(-c3c(C)cccc3C(C)C)c3nc(-c4c(O)cccc4F)c(Cl)cc23)[C@@H](C)C1 [Example 39, 6-Chloro-7-(2-fluoro-6-hydroxyphenyl)-1-(2-methyl-6-(2-propanyl)phenyl)-4-((2S)-2-methyl-4-(2-propenoyl)-1-piperazinyl)pyrido[2,3-d]pyrimidin-2(1H)-one]
- IC50 ([4]; MIA PaCa-2 cells): 29 nM
- IC50 [5]: > 100000 nM
- IC50 [6]: 63 nM

Structure (SMILES): C=CC(=O)N1CCN(c2nc(=O)n(-c3scnc3C(C)C)c3nc(-c4c(O)cccc4F)c(Cl)cc23)[C@@H](C)C1 [Example 48, 6-Chloro-7-(2-fluoro-6-hydroxyphenyl)-4-((2S)-2-methyl-4-(2-propenoyl)-1-piperazinyl)-1-(4-(2-propanyl)-1,3-thiazol-5-yl)pyrido[2,3-d]pyrimidin-2(1H)-one]
- IC50 ([4]; Homo sapiens, MIA PaCa-2, MIA PaCa-2 cells): 63 nM
- IC50 [5]: > 10000 nM
- IC50 [6]: 81 nM

Other lines, results leading:

- IC50 [1]: > 100000 nM
- Coupled exchange IC50 [2]: 361 nM
Structure (SMILES): C=CC(=O)N1CCN(c2snc3c(F)c(-c4c(C)ccc5[nH]ncc45)c(Cl)cc23)C(C(F)F)C1 (racemic) [Example 2-8, 1-(4-(5-chloro-7-fluoro-6-(5-methyl-1H-indazol-4-yl)-2,1-benzothiazol-3-yl)-3-(difluoromethyl)-1-piperazinyl)-2-propen-1-one]

- IC50 [1]: > 100000 nM
- Coupled exchange IC50 [2]: 1730 nM
- IC50 ([3]; Homo sapiens, MIA PaCa-2, 4 h): 3070 nM
Structure (SMILES): C=CC(=O)N1CCN(c2snc3c(F)c(-c4cc(O)cc5ccccc45)c(Cl)cc23)C(C(C)C)C1 (racemic) [Example 2-10, 1-(4-(5-chloro-7-fluoro-6-(3-hydroxy-1-naphthalenyl)-2,1-benzothiazol-3-yl)-3-(2-propanyl)-1-piperazinyl)-2-propen-1-one]

- IC50 [1]: > 100000 nM
- Coupled exchange IC50 [2]: 180 nM
Structure (SMILES): C=CC(=O)N1CCN(c2snc3c(F)c(-c4cc(O)cc5ccccc45)c(Cl)cc23)C(CF)C1 (racemic) [Example 7-2, 1-(4-(5-chloro-7-fluoro-6-(3-hydroxy-1-naphthalenyl)-2,1-benzothiazol-3-yl)-3-(fluoromethyl)-1-piperazinyl)-2-propen-1-one]
